Laboratory results from patent US11345676B2, “Apoptosis signal-regulating kinase 1 (ASK 1) inhibitor compounds” (PHARMAKEA, INC., priority 2017, dated 2022).
Where a name gives a salt, the structure may show the parent alone.

biological target: ASK1 (Homo sapiens (Human), UniProt Q99683); test: Human ASK1 ADP-Glo kinase assay; assay type: biochemical; conditions: recombinant ASK1 (amino acids 649-946), 50 μM ATP, MBP substrate
Description: Example B-1: Human ASK1 ADP-Glo Assay
The ability of test compounds to inhibit ASK1 kinase activity was determined using the luminescent ADP-Glo™ Kinase Assay and Myelin Basic Protein (MBP) as a substrate (Promega Corporation, Madison, Wis.). During the kinase reaction, ASK1 utilizes ATP and generates ADP. The remaining ATP is then depleted by addition of the ADP-Glo™ reagent which also terminates the reaction. Subsequent addition of the Kinase Detection Reagent converts the ADP that was produced during the kinase reaction to ATP, and this newly synthesized ATP is converted to light using the luciferase/luciferin reactions. The assay was performed according to the manufacturer's instructions. Briefly, purified, recombinant ASK1 (amino acids 649-946) (10-20 ng/well) was added to a 384-well, F bottom, small volume, HIbase, white plate (Greiner Bio-One, Monroe, N.C. #784075) containing 1-2 μL 5× test compound or vehicle control (diluted 1:20 from a 100% DMSO stock solution into 1× Reaction Buffer A). The enzyme was allowed to pre-incubate with test compound from 15-120 min at 30° C. before the addition of the ATP/substrate mix (final concentrations of 50 μM ATP+250 ng MBP in 1× Reaction Buffer A). The mixture was then incubated at room temperature for 40 min before the addition of ADP-Glo™ reagent and a second 40 minute room temperature incubation. Following the addition of the Kinase Detection Reagent, the plate was incubated for an additional 40 min at room temperature before reading luminescence on a FlexStation 3 (Molecular Devices, Sunnyvale, Calif.). Maximum activity was determined from wells treated with vehicle and was set to 100% and minimum activity was determined from wells containing no enzyme and this was set to 0%. Percent inhibition was calculated relative to the controls and the data graphed in Collaborative Drug Discovery (CDD) Vault (Burlingame, Calif.).

ASK1, sequence (Q99683 649-946): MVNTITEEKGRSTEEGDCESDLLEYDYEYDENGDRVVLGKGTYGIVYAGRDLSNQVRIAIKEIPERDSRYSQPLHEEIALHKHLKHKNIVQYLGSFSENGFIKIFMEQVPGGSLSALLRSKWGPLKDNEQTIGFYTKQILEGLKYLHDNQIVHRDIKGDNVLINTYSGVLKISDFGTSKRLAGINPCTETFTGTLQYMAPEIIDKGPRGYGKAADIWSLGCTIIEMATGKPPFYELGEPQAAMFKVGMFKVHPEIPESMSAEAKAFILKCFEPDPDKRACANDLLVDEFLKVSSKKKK

| IC50 [nM] | Structure (SMILES) |
| --- | --- |
| 300 to 1000 | C[C@H](CO)n1cnnc1-c1cccc(NC(=O)c2cc(Nc3ccc(F)cc3)ccc2F)n1 [Compound 1-342, (R)-2-Fluoro-5-((4-fluorophenyl)amino)-N-(6-(4-(1-hydroxypropan-2-yl)-4H-1,2,4-triazol-3-yl)pyridin-2-yl)benzamide] |
| < 300 | CC(C)n1cnnc1-c1cccc(NC(=O)c2cc(Oc3ccncn3)ccc2F)n1 [Compound 1-217, 2-Fluoro-N-(6-(4-isopropyl-4H-1,2,4-triazol-3-yl)pyridin-2-yl)-5-(pyrimidin-4-yloxy)benzamide hydrochloride] |
| < 300 | CC(C)n1cnnc1-c1cccc(NC(=O)c2cccc(Oc3cc(C#N)cc(C(F)(F)F)n3)c2)n1 [Compound 1-23, 3-((4-Cyano-6-(trifluoromethyl)pyridin-2-yl)oxy)-N-(6-(4-isopropyl-4H-1,2,4-triazol-3-yl)pyridin-2-yl)benzamide] |
| < 300 | CC(C)n1cnnc1-c1cccc(NC(=O)c2cc(NC(=O)c3ccc(C(=O)O)cc3)ccc2F)n1 [Compound 1-335, 4-((4-Fluoro-3-((6-(4-isopropyl-4H-1,2,4-triazol-3-yl)pyridin-2-yl)carbamoyl)phenyl)carbamoyl)benzoic acid sodium salt] |
| 300 to 1000 | CC(C)n1cnnc1-c1cccc(NC(=O)c2cc(Oc3ccc(Br)cn3)ccc2F)n1 [Compound 1-337, 5-((5-Bromopyridin-2-yl)oxy)-2-fluoro-N-(6-(4-isopropyl-4H-1,2,4-triazol-3-yl)pyridin-2-yl)benzamide hydrochloride] |
| < 300 | CC(C)n1cnnc1-c1cccc(NC(=O)c2cc(Oc3ccccn3)ccc2F)n1 [Compound 1-210, 2-Fluoro-N-(6-(4-isopropyl-4H-1,2,4-triazol-3-yl)pyridin-2-yl)-5-(pyridin-2-yloxy)benzamide hydrochloride] |
| < 300 | CC(C)n1cnnc1-c1cccc(NC(=O)c2cc(Oc3cccc(C(F)(F)F)n3)ccc2F)c1 [Compound 1-223, 2-Fluoro-N-(3-(4-isopropyl-4H-1,2,4-triazol-3-yl)phenyl)-5-((6-(trifluoromethyl)pyridin-2-yl)oxy)benzamide hydrochloride] |
| < 300 | CC(C)n1cnnc1-c1cccc(NC(=O)c2cc(Oc3cccc(Br)n3)ccc2F)n1 [Compound 1-336, 5-((6-Bromopyridin-2-yl)oxy)-2-fluoro-N-(6-(4-isopropyl-4H-1,2,4-triazol-3-yl)pyridin-2-yl)benzamide hydrochloride] |
| 300 to 1000 | CC(C)n1cnnc1-c1cccc(NC(=O)c2cc(Oc3cccc(N4CCCC4)n3)ccc2F)n1 [Compound 1-225, 2-Fluoro-N-(6-(4-isopropyl-4H-1,2,4-triazol-3-yl)pyridin-2-yl)-5-((6-(pyrrolidin-1-yl)pyridin-2-yl)oxy)benzamide hydrochloride] |
| < 300 | C[C@H](CO)n1cnnc1-c1cccc(NC(=O)c2cc(NC(=O)c3ccccc3)ccc2F)n1 [Compound 1-341, (R)-5-Benzamido-2-fluoro-N-(6-(4-(1-hydroxypropan-2-yl)-4H-1,2,4-triazol-3-yl)pyridin-2-yl)benzamide] |
| < 300 | CC(C)n1cnnc1-c1cccc(NC(=O)c2cc(NC(=O)c3ccc(Br)cn3)ccc2F)n1 [Compound 1-311, 5-Bromo-N-(4-fluoro-3-((6-(4-isopropyl-4H-1,2,4-triazol-3-yl)pyridin-2-yl)carbamoyl)phenyl)picolinamide hydrochloride] |
| < 300 | CC(C)n1cnnc1-c1cccc(NC(=O)c2cc(NC(=O)c3cncnc3)ccc2F)n1 [Compound 1-313, N-(4-Fluoro-3-((6-(4-isopropyl-4H-1,2,4-triazol-3-yl)pyridin-2-yl)carbamoyl)phenyl)pyrimidine-5-carboxamide hydrochloride] |
| < 300 | C[C@H](CO)n1cnnc1-c1cccc(NC(=O)c2cc(NCc3ccc(F)cc3)ccc2F)n1 [Compound 1-343, (R)-2-Fluoro-5-((4-fluorobenzyl)amino)-N-(6-(4-(1-hydroxypropan-2-yl)-4H-1,2,4-triazol-3-yl)pyridin-2-yl)benzamide hydrochloride] |
| < 300 | CC(C)n1cnnc1-c1cccc(NC(=O)c2cc(Oc3cccnc3)ccc2F)n1 [Compound 1-211, 2-Fluoro-N-(6-(4-isopropyl-4H-1,2,4-triazol-3-yl)pyridin-2-yl)-5-(pyridin-3-yloxy)benzamide hydrochloride] |
| < 300 | CC(C)n1cnnc1-c1cccc(NC(=O)c2cc(NC(=O)c3ccc(F)c(F)c3)ccc2F)n1 [Compound 1-334, 5-(3,4-Difluorobenzamido)-2-fluoro-N-(6-(4-isopropyl-4H-1,2,4-triazol-3-yl)pyridin-2-yl)benzamide hydrochloride] |
| < 300 | O=C(Nc1ccc(F)c(C(=O)Nc2cccc(-c3nncn3C(CF)CF)n2)c1)c1ccccc1 [Compound 1-340, 5-Benzamido-N-(6-(4-(1,3-difluoropropan-2-yl)-4H-1,2,4-triazol-3-yl)pyridin-2-yl)-2-fluorobenzamide hydrochloride] |
| < 300 | CC(C)n1cnnc1-c1cccc(NC(=O)c2cc(NC(=O)c3ccccn3)ccc2F)n1 [Compound 1-307, N-(4-Fluoro-3-((6-(4-isopropyl-4H-1,2,4-triazol-3-yl)pyridin-2-yl)carbamoyl)phenyl)picolinamide hydrochloride] |
| < 300 | CC(C)n1cnnc1-c1cccc(NC(=O)c2cccc(OCc3cccnc3)c2)n1 [Compound 1-181, N-(6-(4-Isopropyl-4H-1,2,4-triazol-3-yl)pyridin-2-yl)-3-(pyridin-3-ylmethoxy)benzamide hydrochloride] |
| 300 to 1000 | CC(C)(C)OC(=O)NCc1cc(Oc2ccnc(C(=O)Nc3cccc(-c4nncn4C4CC4)n3)c2)nc(C(F)(F)F)c1 [Compound 1-329, tert-Butyl ((2-((2-((6-(4-cyclopropyl-4H-1,2,4-triazol-3-yl)pyridin-2-yl)carbamoyl)pyridin-4-yl)oxy)-6-(trifluoromethyl)pyridin-4-yl)methyl)carbamate] |
| < 300 | CC(C)n1cnnc1-c1cccc(NC(=O)c2cc(NC(=O)c3ncccn3)ccc2F)n1 [Compound 1-314, N-(4-Fluoro-3-((6-(4-isopropyl-4H-1,2,4-triazol-3-yl)pyridin-2-yl)carbamoyl)phenyl)pyrimidine-2-carboxamide trifluoroacetate] |
| 300 to 1000 | CC(C)n1cnnc1-c1cccc(NC(=O)c2cccc(Oc3cc(C(=O)O)cc(C(F)(F)F)n3)c2)n1 [Compound 1-24, 2-(3-((6-(4-Isopropyl-4H-1,2,4-triazol-3-yl)pyridin-2-yl)carbamoyl)phenoxy)-6-(trifluoromethyl)isonicotinic acid trifluoroacetate] |
| < 300 | CC(C)n1cnnc1-c1cccc(NC(=O)c2cc(Oc3ccc(C4CC4)cn3)ccc2F)n1 [Compound 1-227, 5-((5-Cyclopropylpyridin-2-yl)oxy)-2-fluoro-N-(6-(4-isopropyl-4H-1,2,4-triazol-3-yl)pyridin-2-yl)benzamide hydrochloride] |

| Structure (SMILES) | IC50 [nM] |
| --- | --- |
| CC(C)n1cnnc1-c1cccc(NC(=O)c2cc(NC(=O)c3ccccc3)ccc2F)n1 [Compound 1-305, 5-Benzamido-2-fluoro-N-(6-(4-isopropyl-4H-1,2,4-triazol-3-yl)pyridin-2-yl) benzamide hydrochloride] | < 300 |
